{"source": "patent US8258305B2", "about": "“Dopamine transporter inhibitors for use in treatment of movement disorders and other CNS indications” (Prexa Pharmaceuticals, Inc., priority 2005, dated 2012)", "key": {"NET [1]": {"target": "T1, NET (Homo sapiens, UniProt P23975)", "T1 construct": "expressed in transfected cells; host or cells: MDCK", "T1 sequence (P23975 whole entry)": "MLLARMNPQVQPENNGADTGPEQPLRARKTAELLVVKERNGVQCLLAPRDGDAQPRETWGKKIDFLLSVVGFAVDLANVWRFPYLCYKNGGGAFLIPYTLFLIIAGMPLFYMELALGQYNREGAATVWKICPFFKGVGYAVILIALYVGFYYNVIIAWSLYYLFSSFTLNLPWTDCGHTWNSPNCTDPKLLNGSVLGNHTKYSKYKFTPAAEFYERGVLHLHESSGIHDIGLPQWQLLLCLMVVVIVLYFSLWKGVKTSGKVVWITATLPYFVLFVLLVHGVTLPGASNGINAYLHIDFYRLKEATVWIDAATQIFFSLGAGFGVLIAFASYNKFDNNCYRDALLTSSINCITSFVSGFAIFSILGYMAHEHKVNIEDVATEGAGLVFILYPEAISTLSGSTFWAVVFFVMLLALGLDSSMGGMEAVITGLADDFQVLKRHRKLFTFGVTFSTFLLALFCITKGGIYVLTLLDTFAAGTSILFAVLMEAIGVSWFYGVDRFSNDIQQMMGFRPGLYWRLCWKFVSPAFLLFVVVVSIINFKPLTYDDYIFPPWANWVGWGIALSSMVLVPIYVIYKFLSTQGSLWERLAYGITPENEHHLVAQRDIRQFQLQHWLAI", "assay": "Functional norephinephrine uptake inhibition, MDCK cell line", "type": "cell-based", "experimental": "(§1) Functional activity of the compounds was determined in vitro in cellular assays using recombinant human cell lines."}, "5-HT (serotonine uptake)": {"target": "T2, 5-HT (serotonine uptake) (Homo sapiens, UniProt P31645)", "T2 construct": "expressed in transfected cells; host or cells: HEK-293", "T2 sequence (P31645 whole entry)": "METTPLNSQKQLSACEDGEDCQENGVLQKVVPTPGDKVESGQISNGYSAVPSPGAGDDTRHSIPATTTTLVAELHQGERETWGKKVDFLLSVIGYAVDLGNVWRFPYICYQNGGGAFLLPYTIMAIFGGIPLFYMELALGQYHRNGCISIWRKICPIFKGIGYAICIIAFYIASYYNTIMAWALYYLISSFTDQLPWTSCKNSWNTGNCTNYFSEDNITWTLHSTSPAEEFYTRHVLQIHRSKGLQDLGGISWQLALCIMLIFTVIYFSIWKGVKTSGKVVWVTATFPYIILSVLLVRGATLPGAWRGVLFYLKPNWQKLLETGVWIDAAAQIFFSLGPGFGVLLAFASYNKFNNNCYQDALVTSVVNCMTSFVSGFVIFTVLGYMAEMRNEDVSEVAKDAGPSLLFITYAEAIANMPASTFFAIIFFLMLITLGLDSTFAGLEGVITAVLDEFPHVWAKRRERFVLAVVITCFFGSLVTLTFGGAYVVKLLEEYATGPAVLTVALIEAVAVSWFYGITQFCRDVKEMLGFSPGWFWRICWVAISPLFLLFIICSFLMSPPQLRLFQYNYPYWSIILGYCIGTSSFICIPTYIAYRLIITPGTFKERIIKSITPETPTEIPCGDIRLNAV", "type": "cell-based", "settings": "functional uptake", "experimental": "as §1"}, "DAT": {"target": "T3, DAT (Homo sapiens, UniProt Q01959)", "T3 construct": "expressed in transfected cells", "T3 sequence (Q01959 whole entry)": "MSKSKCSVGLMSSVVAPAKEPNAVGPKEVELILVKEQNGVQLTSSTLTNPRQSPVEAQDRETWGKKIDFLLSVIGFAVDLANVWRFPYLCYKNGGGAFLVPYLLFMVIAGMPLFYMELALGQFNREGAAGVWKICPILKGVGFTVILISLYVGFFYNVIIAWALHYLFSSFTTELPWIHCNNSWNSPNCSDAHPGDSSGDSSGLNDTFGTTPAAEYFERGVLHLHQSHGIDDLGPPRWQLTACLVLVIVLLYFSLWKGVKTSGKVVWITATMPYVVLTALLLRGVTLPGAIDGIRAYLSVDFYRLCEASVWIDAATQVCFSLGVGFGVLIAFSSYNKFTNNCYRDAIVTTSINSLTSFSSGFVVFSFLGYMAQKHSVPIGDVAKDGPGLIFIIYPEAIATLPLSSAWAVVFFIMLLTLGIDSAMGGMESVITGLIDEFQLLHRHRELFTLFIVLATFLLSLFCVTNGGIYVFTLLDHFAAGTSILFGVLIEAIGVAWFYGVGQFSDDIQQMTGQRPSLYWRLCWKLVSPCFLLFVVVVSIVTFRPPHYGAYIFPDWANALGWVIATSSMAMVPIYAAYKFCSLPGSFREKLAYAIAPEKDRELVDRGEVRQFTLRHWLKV", "type": "cell-based", "settings": "functional uptake", "experimental": "as §1"}, "rat": {"test_system": "rat", "assay": "Acute single-dose toxicology (maximum tolerated dose)", "type": "in vivo", "settings": "for observed toxicological effects: rat (n = 5), i.v., observed for 72 hours", "experimental": "An in vivo evaluation was carried out to determine the maximum tolerated dose of numerous test compounds in rat. The compounds were administered i.v., and the animals were then observed for 72 hours.\nBriefly, experimental rats, in groups of 5 animals, were administered with various doses of respective DAT inhibitors (e.g. 30, 90, 120, and 200 mg/kg), and the observed toxicological effects were recorded."}, "NET [2]": {"target": "NET (Rattus norvegicus, UniProt Q63380)", "sequence (Q63380 1-617)": "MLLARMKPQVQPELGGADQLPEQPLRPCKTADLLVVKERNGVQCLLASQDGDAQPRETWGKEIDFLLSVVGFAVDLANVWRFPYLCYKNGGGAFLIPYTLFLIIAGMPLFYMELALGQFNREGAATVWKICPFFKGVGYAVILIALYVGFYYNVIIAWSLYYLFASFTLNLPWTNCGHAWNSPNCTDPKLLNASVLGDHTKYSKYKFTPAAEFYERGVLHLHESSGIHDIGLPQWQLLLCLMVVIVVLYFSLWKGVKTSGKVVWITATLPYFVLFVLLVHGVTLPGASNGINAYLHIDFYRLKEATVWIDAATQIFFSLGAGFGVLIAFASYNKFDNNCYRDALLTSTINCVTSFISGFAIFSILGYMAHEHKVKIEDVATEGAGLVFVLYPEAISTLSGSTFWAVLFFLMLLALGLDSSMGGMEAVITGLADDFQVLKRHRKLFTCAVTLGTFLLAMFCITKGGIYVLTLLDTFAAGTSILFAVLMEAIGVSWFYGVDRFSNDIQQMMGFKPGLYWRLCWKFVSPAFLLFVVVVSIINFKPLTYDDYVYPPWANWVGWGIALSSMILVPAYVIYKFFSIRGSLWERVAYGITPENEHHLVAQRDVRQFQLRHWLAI", "assay": "Functional uptake profile, rat NET", "type": "cell-based"}, "[3]": {"test_system": "rat (immobility in forced swim test)", "assay": "Forced swim test (behavioral despair assay)", "type": "in vivo", "from_the_text": "The objective of this study was to assess the antidepressant effects of test compounds in the behaviral despair assay in rats using a modification of a method described by Porsolt R. D. et al. in Behavioral despair in rats: a new model sensitive to antidepressant treatment, Eur. J. Pharmacol., 47: 379-391, 1978; Porsolt et al., Nature 266: 730-732, 1977; and Porsolt et al., in Psychopharmacology, Olivier, Mos, and Slangen (eds) Birkhauser Verlag, Basel, pp. 137-159, 1991. Briefly, when mice (or rats) are forced to swim in a cylinder from which no escape is possible, they readily adopt a characteristic immobile posture and make no further attempts to escape except for small movements needed to keep floating. The immobility is considered by some to reflect a “depressive mood” (Porsolt et al., Nature 266: 730-732, 1977) in which animals cease to struggle to escape the aversive situation. The immobility induced by the procedure is influenced by a wide variety of antidepressants (Porsolt et al., in Psychopharmacology, Olivier, Mos, and Slangen (eds). Birkhauser. Verlag, Basel, pp. 137-159, 1991) and has a good predictive validity in that it detects antidepressants with different mechanisms of action (TCAs, SSRIs, MAOIs, and other atypical ones). The test is sensitive to muscle-relaxant (benzodiazepines) and sedative (neuroleptics) effects, leading to enhanced immobility (Porsolt et al., supra).\nIn a typical experiment, animals are placed singly into a cylinder (e.g. 46×30 cm) containing fresh water at about 20° C. for 6 minutes. The activity (or immobility) of the animal is measured by an observer minute by minute. In more detail, the animals were preconditioned in a pretest session, where the rats were individually forced to swim inside a vertical plexiglass cylinder containing water maintained at 19-20° C. After 15 minutes in the water, they were allowed to dry for 15 minutes in a heated enclosure. Twenty four hours later, the compounds were administered either intraperitoneally or orally to the animals. One hour after administration of the test compound, animals were put back into the cylinder containing water. The total duration of immobility was measured during the last 4 minutes of a 6 minute test.\nThe results are expressed as the percentage of variation of the total duration of immobility calculated from the mean value of the vehicle-treated group (% variation=[(immobility duration of vehicle−immobility duration of test compound)/(immobility duration of vehicle)]×100%). Only compounds which exibit a statistically significant variation (e.g. >30%) are considered effective in this in vivo model.\nSibutramine (2.0 and 2.5 mg/kg), Bupropion (7.5 and 10 mg/kg), and Imipramine (30 mg/kg) were similarly administered as controls. […] Asterisks indicate highly statistical significant results.\nA fourth DAT inhibitor, CNS-28,002 was administered p.o. as a racemic mixture of diastereomers at either 35 or 75 mg/kg. Sibutramine (5.0 and 3.75 mg/kg), Bupropion (30 and 40 mg/kg), and Imipramine (100 mg/kg) were similarly administered as controls.\nSibutramine (5.0 and 3.75 mg/kg), Bupropion (30 and 40 mg/kg), and Imipramine (100 mg/kg) were similarly administered as controls."}, "Sprague-Dawley rats": {"test_system": "Sprague-Dawley rats", "assay": "7-day multidose oral dosing toxicology study", "settings": "7 days; for observed symptoms: Sprague-Dawley rats (n = 6; 3M/3F), oral", "experimental": "The oral doses tested are 50 mg/kg/day, 100 mg/kg/day, 200 mg/kg/day, and 400 mg/kg/day."}, "[4]": {"settings": "single dose 200 mg/kg, 200 mg/kg"}, "[5]": {"settings": "i.p., e.g. 7.5 and 15 mg/kg, racemic mixtures of diastereomers, FIG. 2"}, "[6]": {"settings": "p.o., 35 or 75 mg/kg, FIG. 3 and FIG. 4"}}, "note": "“Also recorded” adds a separate entry of the source.", "data": [{"compound": "CC(C)C[C@@H](N)C1(c2ccc(Cl)cc2)CCC1", "note": "[R-DDMS]", "values": [{"measurement": "EC50", "setting": "NET [1]", "value": 200, "unit": "nM"}, {"measurement": "EC50", "setting": "5-HT (serotonine uptake)", "value": 1500, "unit": "nM"}, {"measurement": "EC50", "setting": "DAT", "value": 100, "unit": "nM"}]}, {"compound": "CC1CCN(CC2(c3ccc(Cl)cc3)CCC2)CC1COc1ccc(C(F)(F)F)cc1", "note": "(centres unmarked) [CNS-27,100]", "values": [{"measurement": "observed toxicological effects", "setting": "rat; [4]", "value": "decreased grip strength, and slight depression"}, {"measurement": "doses tolerated well with no significant observed symptoms", "setting": "rat; rat, single dose", "value": "below 120 mg/kg"}, {"measurement": "EC50", "setting": "NET [2]", "value": 1000, "unit": "nM"}, {"measurement": "in vivo efficacy in forced swim test compared with commercial drugs", "setting": "[3]; [5]", "value": "performed equally well, if not better, than the commercial drugs Sibutramine, Bupropion, and Imipramine"}, {"measurement": "in vivo efficacy in forced swim test compared with commercial drugs", "setting": "[3]; [6]", "value": "performed equally well, if not better, than the commercial drugs Sibutramine, Bupropion, and Imipramine"}]}, {"compound": "CC1CCC(COc2ccc(C(F)(F)F)cc2)CN1CC(O)C1(c2ccc(Cl)cc2)CCC1", "note": "(centres unmarked) [CNS-28,200]", "values": [{"measurement": "observed toxicological effects", "setting": "rat; single dose 120 mg/kg, 120 mg/kg", "value": "decreased grip strength and limb tone and convulsions"}, {"measurement": "observed toxicological effects", "setting": "rat; [4]", "value": "Convulsions"}, {"measurement": "toxic dose relative to the effective dose shown in FIG. 2", "setting": "rat; rat, dose with convulsions vs forced swim test effective dose", "value": "about 10 times"}, {"measurement": "in vivo efficacy in forced swim test compared with commercial drugs", "setting": "[3]; [5]", "value": "performed equally well, if not better, than the commercial drugs Sibutramine, Bupropion, and Imipramine"}]}, {"compound": "CN[C@H](CC(C)C)C1(c2ccc(Cl)cc2)CCC1", "note": "[R-DMS]", "values": [{"measurement": "EC50", "setting": "NET [1]", "value": 300, "unit": "nM"}, {"measurement": "EC50", "setting": "5-HT (serotonine uptake)", "value": 1500, "unit": "nM"}, {"measurement": "EC50", "setting": "DAT", "value": 30, "unit": "nM"}]}, {"compound": "CC(C)CC(N(C)C)C1(c2ccc(Cl)cc2)CCC1", "note": "(centres unmarked) [Sibutramine]", "values": [{"measurement": "observed symptoms", "setting": "Sprague-Dawley rats; 100 mg/kg/day", "value": "decreased grip strength, depression"}, {"measurement": "observed symptoms", "setting": "Sprague-Dawley rats; 400 mg/kg/day", "value": "convulsions; also recorded: Convulsions;"}, {"measurement": "deaths (number of animals)", "setting": "Sprague-Dawley rats; n = 6, oral, 200 mg/kg/day", "value": 2, "unit": "deaths"}, {"measurement": "self mutilation (number of animals)", "setting": "Sprague-Dawley rats; n = 6, oral, 200 mg/kg/day", "value": 6, "unit": "self mutilation"}]}, {"compound": "CC1CCC(COc2ccc(C(F)(F)F)cc2)CN1CC1(c2ccc(Cl)cc2)CCC1", "note": "(centres unmarked) [CNS-28,100]", "values": [{"measurement": "EC50", "setting": "NET [2]", "value": 300, "unit": "nM"}, {"measurement": "in vivo efficacy in forced swim test compared with commercial drugs", "setting": "[3]; [5]", "value": "performed equally well, if not better, than the commercial drugs Sibutramine, Bupropion, and Imipramine"}]}, {"compound": "CC1C(COc2ccc(C(F)(F)F)cc2)CCCN1CC(O)C1(c2ccc(Cl)cc2)CCC1", "note": "(centres unmarked) [CNS-28,002]", "values": [{"measurement": "observed toxicological effects", "setting": "rat; [4]", "value": "no observed symptoms"}, {"measurement": "in vivo efficacy in forced swim test compared with commercial drugs", "setting": "[3]; [6]", "value": "performed equally well, if not better, than the commercial drugs Sibutramine, Bupropion, and Imipramine"}]}]}
